Target: G-protein coupled receptor 52 (Homo sapiens, UniProt Q9Y2T5)
Test: Antagonist activity at GPR52 (unknown origin) expressed in HEK293 cells assessed as inhibition of WO459-induced cAMP accumulation preincubated for 15 mins followed by WO459 addition and measured after 30 mins by LANCE Ultra cAMP kit based microplate reader analysis; call rule not given here
Type: functional, cell-based

Chain of G-protein coupled receptor 52 (Q9Y2T5 whole entry): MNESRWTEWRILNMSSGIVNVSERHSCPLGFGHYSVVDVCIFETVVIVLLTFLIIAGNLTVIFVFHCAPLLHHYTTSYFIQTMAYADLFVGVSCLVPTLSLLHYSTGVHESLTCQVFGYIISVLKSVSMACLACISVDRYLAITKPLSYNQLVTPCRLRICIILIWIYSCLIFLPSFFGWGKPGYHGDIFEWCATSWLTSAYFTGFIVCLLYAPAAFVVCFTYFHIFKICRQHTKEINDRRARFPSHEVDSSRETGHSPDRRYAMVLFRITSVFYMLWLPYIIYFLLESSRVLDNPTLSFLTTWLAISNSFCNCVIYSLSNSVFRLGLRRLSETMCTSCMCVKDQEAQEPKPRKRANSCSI

IC50 (read-out: IC50)	IC50 (hek293)	Compound
3540 nM	–	O=C(/C=C/CCc1ccccc1)c1ccc2ccccc2c1
–	Not Active	O=C(/C=C/CCc1ccccc1)c1ccc(F)cc1
1810 nM	–	O=C(/C=C/CCc1ccc(Br)cc1)c1ccccc1
